According to patent US20080275023A1, “N-Hydroxyamides Omege-Substituted with Tricyclic Groups as Histone Deacetylase Inhibitors, Their Preparation and Use in Pharmaceutical Formulations” (priority 2005, published 2008):

Columns and labels:
[1] = system: HCT-116 human colon carcinoma cells; assay: Cytotoxic activity on culture of human colon carcinoma cells HCT-116 (Alamar Blue); format: cell-based; conditions: HCT-116 cells, 72 hours after addition of compounds, Alamar Blue viability
Method: Evaluation of Cytotoxic Activity on Culture of Human Colon Carcinoma Cells HCT-116
Human colon carcinoma cells HCT-116 were seeded onto 96-well plates in RPMI1640 culture medium with added 10% FBS and 2 mM glutamine. 24 hours after seeding, the compounds at different concentrations are added. All the compounds are diluted in DMSO such that the final concentrations on the cultures is no greater than 0.5%. 72 hours after addition of the compounds, cell viability is measured by means of the dye Alamar Blue. The result is expressed as percent survival of the treated relative to the control, treated with carrier alone.

[2] = system: histone deacetylase (HDAC), HeLa nuclear extract; assay: Deacetylase activity on nuclear extract of HeLa cells (Fluor de Lys kit); format: biochemical, human; conditions: 0.1 μM compound, percent inhibition relative to control without inhibitor
Method: The activity of the compounds as histone deacetylase (HDAC) inhibitors was measured using an in vitro acetylation assay. The compounds were then evaluated as inhibitors of proliferation of human tumor cell cultures.
Deacetylase Activity on Nuclear Extract of Hela Cells (Human Cervical Cancer Cell)
The assay (Fluor de Lys™ kit, BioMol) is divided into two steps: in the first step the substrate which comprises an acetylated lysine residue is reacted with the nuclear extract (HeLa) containing the enzymatic activity in the presence and absence of inhibitors. In the second step a fluorogenic reagent is added which highlights the deacetylated residues. A reduction in fluorescence is obtained where there has been inhibition of the deacetylase activity.

Compound	IC50 [1] [nM]	% inhib at 0.1 μM [2] [%]
COc1ccc2c(c1)Nc1ccccc1S(=O)(=O)N2CCCCCC(=O)NO [Example 21, 6-(3-Methoxy-10,10-dioxo-5,10-dihydro-10λ^6-thia-5,11-diaza-dibenzo[a,d]cyclohepten-11-yl)-hexanoic acid hydroxyamide]	290	–
O=C(CCCCCN1c2ccccc2Oc2ccccc2S1(=O)=O)NO [Example 23, 6-(10,10-Dioxo-10H-5-oxa-10λ^6-thia-11-aza-dibenzo[a,d]cyclohepten-11-yl)-hexanoic acid hydroxyamide]	190	48
CN(C)c1ccc2c(c1)S(=O)(=O)N(CCCCCC(=O)NO)c1ccccc1N2 [Example 20, 6-(8-Dimethylamino-10,10-dioxo-5,10-dihydro-10λ^6-thia-5,11-diaza-dibenzo[a,d]cyclohepten-11-yl)-hexanoic acid hydroxyamide]	390	40
Nc1cccc2c1Nc1ccccc1S(=O)(=O)N2CCCCCC(=O)NO [Example 32, 6-(4-Amino-10,10-dioxo-5,10-dihydro-10λ^6-thia-5,11-diaza-dibenzo[a,d]cyclohepten-11-yl)-hexanoic acid hydroxyamide]	2000	47
O=C(CCCCCN1C(=O)c2ccccc2Oc2ccc(Cl)cc21)NO [Example 14, 6-(8-Chloro-11-oxo-11H-dibenzo[b,f][1,4]oxazepin-10-yl)-hexanoic acid hydroxyamide]	200	65
COc1ccc2c(c1)N(CCCCCC(=O)NO)S(=O)(=O)c1ccccc1N2 [Example 29, 6-(2-Methoxy-10,10-dioxo-5,10-dihydro-10λ^6-thia-5,11-diaza-dibenzo[a,d]cyclohepten-11-yl)-hexanoic acid hydroxyamide]	900	54
COc1ccc2c(c1)N(CCCCCC(=O)NO)C(=O)c1ccccc1S2(=O)=O [Example 9, 6-(8-Methoxy-5,5,11-trioxo-5,11-dihydro-5λ^6-dibenzo[b,f][1,4]thiazepin-10-yl)-hexanoic acid hydroxyamide]	40	83
O=C(CCCCCN1C(=O)c2ccccc2Oc2ccccc21)NO [Example 12, 6-(11-Oxo-11H-dibenzo[b,f][1,4]oxazepin-10-yl)-hexanoic acid hydroxyamide]	640	66
COc1ccc2c(c1)N(CCCCCC(=O)NO)C(=O)c1ccccc1O2 [Example 13, 6-(8-Methoxy-11-oxo-11H-dibenzo[b,f][1,4]oxazepin-10-yl)-hexanoic acid hydroxyamide]	310	73
O=C(CCCCCN1C(=O)c2ccccc2S(=O)(=O)c2ccccc21)NO [Example 8, 6-(5,5,11-Trioxo-5,11-dihydro-5λ^6-dibenzo[b,f][1,4]thiazepin-10-yl)-hexanoic acid hydroxyamide]	105	73
COc1ccc2c(c1)Nc1ccccc1N(CCCCCC(=O)NO)S2(=O)=O [Example 30, 6-(7-Methoxy-10,10-dioxo-5,10-dihydro-10λ^6-thia-5,11-diaza-dibenzo[a,d]cyclohepten-11-yl)-hexanoic acid hydroxyamide]	390	65
CN(C)c1ccc2c(c1)S(=O)(=O)N(CCCCCC(=O)NO)c1ccc(O)cc1N2 [Example 26, 6-(8-Dimethylamino-3-hydroxy-10,10-dioxo-5,10-dihydro-10λ^6-thia-5,11-diaza-dibenzo[a,d]cyclohepten-11-yl)-hexanoic acid hydroxyamide]	1000	66
O=C(CCCCCN1C(=O)c2cscc2Nc2cc(Cl)c(Cl)cc21)NO [Example 17, 6-(6,7-Dichloro-10-oxo-4H,10H-2-thia-4,9-diaza-benzo[f]azulen-9-yl)-hexanoic acid hydroxyamide]	800	–
COc1ccc2c(c1)N(CCCCCC(=O)NO)C(=O)c1ccccc1[S+]2[O-] (stereo not shown) [Example 11, 6-(8-Methoxy-5,11-dioxo-5,11-dihydro-5λ^4-dibenzo[b,f][1,4]thiazepin-10-yl)-hexanoic acid hydroxyamide]	50	73
O=C(CCCCCN1c2cc(F)ccc2Nc2ccccc2S1(=O)=O)NO [Example 25, 6-(2-Fluoro-10,10-dioxo-5,10-dihydro-10λ^6-thia-5,11-diaza-dibenzo[a,d]cyclohepten-11-yl)-hexanoic acid hydroxyamide]	1500	42
O=C(CCCCCN1C(=O)c2ccccc2S(=O)(=O)c2ccc(Cl)cc21)NO [Example 10, 6-(8-Chloro-5,5,11-trioxo-5,11-dihydro-5λ^6-dibenzo[b,f][1,4]thiazepin-10-yl)-hexanoic acid hydroxyamide]	30	77
O=C(CCCCCCN1C(=O)c2ccccc2Oc2ccccc21)NO [Example 15, 7-(11-Oxo-11H-dibenzo[b,f][1,4]oxazepin-10-yl)-heptanoic acid hydroxyamide]	200	62
COc1ccc2c(c1)Nc1ccc(N(C)C)cc1S(=O)(=O)N2CCCCCC(=O)NO [Example 27, 6-(8-Dimethylamino-3-methoxy-10,10-dioxo-5,10-dihydro-10λ^6-thia-5,11-diaza-dibenzo[a,d]cyclohepten-11-yl)-hexanoic acid hydroxyamide]	400	63
